According to US11078496B2, “System for F-box hormone receptor regulated protein expression in mammalian cells” (ICAHN SCHOOL OF MEDICINE AT MOUNT SINAI, priority 2016, dated 2021):

System: dnMAML1-NLS-GFP-OsJAZ^33 (dnM1-GFP-J)
Test: Coronatine-dependent degradation of dnM1-GFP-J in hESCs (fluorescence microscopy)
Assay type: cell-based, human
Details: hESCs harboring pRAIDRS NICD-A and pJAZ dnM1-GFP-J, 50 μM coronatine, 1 day
Experimental: FIGS. 14A-14C illustrate a dual switch for dissection of NOTCH1 function in hESCs. H9 hESCs were infected with pRAIDRS harboring an shRNA targeting the full-length NOTCH1 receptor and an NICD-AID^47 CDS (“NICD-A”). As a control, cells were infected with pRAIDRS NLS-GFP-AID^47 (“GFP-A”). Cells were maintained with 250 μM auxin to prevent NICD-A accumulation. Following selection and isolation of colonies with ESC morphology, cells were infected with pJAZ dnMAML1-NLS-GFP-OsJAZ^33 (“dnM1-GFP-J”) or pJAZ NLS-GFP-OsJAZ^33 (“GFP-J”) as control and post-selection colonies were expanded. FIG. 14A is a western blot analysis of pRAIDRS GFP-A and NICD-A hESCs maintained in the presence of 250 μM auxin (“IAA”), washed and incubated for 4 h in the presence (+) or absence (−) of auxin. […] Dashed lines mark colony borders. […] Dashed lines indicate instances where coronatine-mediated dnM1-GFP-J degradation restored NICD-A-dependent activity by at least twofold. […] See also FIGS. 13A-13E and 15.
In mice, NOTCH was also implicated in trophectoderm formation (Rayon et al., “Notch and Hippo Converge on Cdx2 to Specify the Trophectoderm Lineage in the Mouse Blastocyst,” Dev. Cell 30:410-422 (2014), which is hereby incorporated by reference in its entirety). […]

In the case of `CC[C@H]1C=C(C(=O)N[C@@]2(C(=O)O)C[C@@H]2CC)[C@H]2CCC(=O)[C@H]2C1` [coronatine, Coronatine], the “degradation of dnM1-GFP-J” value is reported as “effectively induced degradation”.
